Test in all cases: NCI-60 cell line screen, 48 h
In assay [1] the test system is COLO 205 colon.
For assay [2], the system named is CCRF-CEM leukemia.
Assay [3] deals with ACHN renal.
The subject of assay [4] is HS 578T breast.
In assay [5] the test system is EKVX NSCLC.
The subject of assay [6] is UO-31 renal.
In assay [7] the test system is TK-10 renal.
In assay [8] the test system is NCI-H23 lung.
The test system of assay [9] is T-47D breast.
For assay [10], the system named is SK-OV-3 ovarian.

Each structure is given as a SMILES string.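 Following 48 hours of exposure in 96-well plates, responses at five concentrations were used to interpolate endpoints linearly. GI50 marks 50% less growth. TGI: concentration producing complete growth inhibition.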

With `Nc1ccn(C2CC(O)C(CO)O2)c(=O)n1` (stereo unspecified), the GI50 in assay [1], in assay [2], in [3], in [4], in assay [5] and in [6] was greater than 5000 µM each time. Further, the GI50 in [7], in assay [8], in assay [9] and in [10] was greater than 5000 µM throughout. The TGI in assay [1], in assay [2], in assay [3], in [4], in [5] and in [6] was greater than 5000 µM each time. Further, the TGI in assay [7], in [8], in assay [9] and in assay [10] was greater than 5000 µM throughout.

As to `CCOC(=O)Cn1c(C)c(/C=N/NC(=O)c2cc3c(ccc4ccccc43)o2)c2ccccc21`, the GI50 is 0.401 µM in assay [1]; 0.41 µM in [2]; 0.926 µM in assay [3]; 0.514 µM in [4]; 0.662 µM in assay [5]; 0.753 µM in [6]. The GI50 in assay [7] was 1.26 µM; in [8] it was 0.669 µM; in assay [9], 0.653 µM; in assay [10], 0.804 µM. Moreover, the TGI is greater than 100 µM in [2]; 3.21 µM in assay [3]; 25.2 µM in assay [4]; 42.5 µM in assay [5]; 2.61 µM in assay [6]; 3.92 µM in assay [7]. Also, the TGI was 6.91 µM in [8], greater than 27.8 µM in assay [9] and 9.44 µM in assay [10].

With `O=c1oc2ccc(Cl)cc2c(=O)n1-c1cc(C(F)(F)F)cc(C(F)(F)F)c1`, the GI50 in assay [1] is 1.78 µM; in assay [2] it was 0.388 µM; in assay [3], 0.303 µM; in [4] it was 0.239 µM; in assay [5], 0.288 µM; in [6] it was 0.238 µM. Moreover, the GI50 in assay [7] is 0.395 µM; in assay [8] it was 0.289 µM; in assay [9], 0.229 µM; in assay [10], 0.205 µM. For the same compound, the TGI was determined as 3.72 µM in assay [1]; 10.2 µM in assay [2]; 10.5 µM in [3]; 0.987 µM in assay [4]; 2.01 µM in assay [5]; 0.831 µM in [6]. Besides, the TGI in assay [7] is 11 µM; in assay [8], 1.11 µM; in [9], 2.4 µM; in [10], 2.38 µM.

`COc1cccc(-n2ncc3c(N/N=C/c4ccc(S(C)(=O)=O)cc4)ncnc32)c1`: the GI50 in assay [1] was 7.64 µM; in [2], greater than 25 µM; in assay [3] it was 6.27 µM; in [4] it was 0.608 µM; in assay [5], greater than 22.9 µM; in [6], 5.77 µM. Also, the GI50 was 8.4 µM in [7], 11.9 µM in assay [8], 7.4 µM in assay [9] and 4.24 µM in [10]. For the same compound, the TGI in [1] was greater than 25 µM; in assay [2] it was greater than 25 µM; in assay [3], greater than 25 µM; in [4] it was 7.34 µM; in assay [5] it was greater than 25 µM; in assay [6], 14.3 µM. For the same compound, the TGI was greater than 23.3 µM in assay [7], greater than 25 µM in assay [8], greater than 21 µM in assay [9] and 10.7 µM in assay [10].

`Cc1ccc(N=Nc2c(N)nn(-c3ccccc3)c2N)cc1`: the GI50 is 1.21 µM in [1]; 2.06 µM in [2]; 11.6 µM in assay [3]; 1.94 µM in assay [4]; 3.72 µM in assay [5]; 7.97 µM in assay [6]. Besides, the GI50 in assay [8] is 2.29 µM; in [9], 1.74 µM; in [10] it was 2.63 µM. In addition, the TGI in assay [1] was greater than 26.9 µM; in assay [3] it was greater than 100 µM; in [4], greater than 31.4 µM; in assay [5], greater than 100 µM; in assay [6], greater than 100 µM; in [7], greater than 100 µM. Besides, the TGI in assay [9] and in [10] was greater than 100 µM in each case.

`CCOC(=O)c1ccc(Nc2sc(C(=O)c3cccc([N+](=O)[O-])c3)c(N)c2C#N)cc1`: the GI50 in [1] was 0.156 µM; in [2], 0.067 µM; in assay [3], 0.0976 µM; in assay [4], 0.129 µM; in assay [5], 0.469 µM; in assay [6] it was 0.0543 µM. Moreover, the GI50 in assay [7] is 0.192 µM; in [8], 0.425 µM; in [9] it was 0.141 µM; in assay [10], 0.181 µM. Also, the TGI in [1] was 1.59 µM; in assay [2] it was 8.34 µM; in [3] it was greater than 44.2 µM; in assay [4], greater than 39.1 µM; in assay [5], greater than 75.8 µM; in assay [6] it was 20 µM. Further, the TGI in [7] was 17.3 µM; in assay [8], 22.6 µM; in assay [9], greater than 68.5 µM; in [10], 18.6 µM.

On to `C[C@H]1[C@H](C)CC[C@]2(C(=O)O)CC[C@]3(C)C(=CC[C@@H]4[C@@]5(C)CC[C@H](OC(=O)/C=C/c6ccc(O)cc6)C(C)(C)[C@@H]5CC[C@]43C)[C@H]12`, for which the GI50 in assay [1] was 4.12 µM; in assay [2] it was 5 µM; in assay [3], 5.05 µM; in assay [4], 2.81 µM; in assay [5], 3.88 µM; in assay [6] it was 3.59 µM. Besides, the GI50 in [7] is 3.01 µM; in [8], 3.11 µM; in [9], 13.3 µM; in [10] it was 5.25 µM. The TGI in assay [1] was greater than 50.3 µM; in assay [2], greater than 40.4 µM; in [3] it was 9.12 µM; in assay [4], 8.8 µM; in [5] it was 18.6 µM; in assay [6] it was 29.8 µM. In addition, the TGI in [7] was 17.5 µM; in [8], 8.36 µM; in [9], greater than 60.1 µM; in assay [10], 20.3 µM.

On to `O=C(O)c1ccc(NCc2nc3cc4ccccc4cc3[nH]2)cc1`, for which the TGI in assay [1], in assay [2], in assay [3], in assay [4], in assay [5] and in assay [6] was greater than 100 µM throughout. Moreover, the TGI in assay [7], in [8], in assay [9] and in [10] was greater than 100 µM each time.
